Target: T1, human adenosine A2b receptor (Homo sapiens, UniProt P29275)
T1 sequence (P29275 1-332): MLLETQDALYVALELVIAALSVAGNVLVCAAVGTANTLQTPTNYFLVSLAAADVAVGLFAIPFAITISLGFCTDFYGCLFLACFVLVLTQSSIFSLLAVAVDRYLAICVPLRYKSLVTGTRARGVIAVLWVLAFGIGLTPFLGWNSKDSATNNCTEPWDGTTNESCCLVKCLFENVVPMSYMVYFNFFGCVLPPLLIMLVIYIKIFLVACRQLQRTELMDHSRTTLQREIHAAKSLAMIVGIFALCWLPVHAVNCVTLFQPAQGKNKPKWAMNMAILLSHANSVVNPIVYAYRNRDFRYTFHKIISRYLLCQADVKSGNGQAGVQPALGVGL
Experiment: Cellular in vitro reporter gene test for A2b receptor activity (antagonism of NECA)
Format: cell-based
Design: expressed in transfected cells; host or cells: CHO-K1 (Chinese hamster ovary) with CRE-luciferase reporter
Conditions: recombinant CHO-K1 cells, CRE-luciferase reporter, co-incubation with EC50 concentration of NECA, 3 hours
Outline: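 Antagonism measured as block of NECA-induced, cAMP/CRE-dependent luciferase expression in recombinant A2b CHO-K1 cells. NECA used at the EC50 set in a pre-experiment on each test day; luminescence detected after 3 h. Reported as IC50, partly averaged and rounded to two significant figures.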

With `Cc1c(CN2CCNC2=O)sc2c1c(=O)n(C1CC1C)c(=O)n2C[C@H]1CCCO1` (single isomer, unassigned) [Example 288] as the molecule, how does the IC50 read?
The IC50 was 47 nM.

Which IC50 does the source give for `Cc1c(Cn2nc[nH]c2=O)sc2c1c(=O)n(C1CC1)c(=O)n2CCOC(C)C` [Example 34, 3-Cyclopropyl-1-(2-isopropoxyethyl)-5-methyl-6-[(5-oxo-4,5-dihydro-H-1,2,4-triazol-1-yl)methyl]thieno[2,3-d]pyrimidine-2,4(1H,3H)-dione] here?
The IC50 was 500 nM.

For `Cc1c(CN2CCNC2=O)sc2c1c(=O)n(C1CC1C)c(=O)n2CCC(F)(F)F` (single isomer, unassigned) [Example 241, 5-Methyl-3-(2-methylcyclopropyl)-6-[(2-oxoimidazolidin-1-yl)methyl]-1-(3,3,3-trifluoropropyl)thieno[2,3-d]pyrimidine-2,4(1H,3H)-dione], which IC50 is on record?
The IC50 was 7.1 nM.

With `Cc1c(Cn2nc[nH]c2=O)sc2c1c(=O)n(C1CCCC1)c(=O)n2CCC(F)(F)F` [Example 188, 3-Cyclopentyl-5-methyl-6-[(5-oxo-4,5-dihydro-1H-1,2,4-triazol-1-yl)methyl]-1-(3,3,3-trifluoropropyl)thieno[2,3-d]pyrimidine-2,4(1H,3H)-dione] as the molecule, how does the IC50 read?
Its IC50 is 100 nM.

How did the IC50 turn out when `COC(=O)N=C1NCCN1Cc1sc2c(c1C)c(=O)n(C1CC1C)c(=O)n2CCOC(F)(F)F` (single isomer, unassigned) [Example 268, Methyl [1-({5-methyl-3-(2-methylcyclopropyl)-2,4-dioxo-1-[2-(trifluoromethoxy)ethyl]-1,2,3,4-tetrahydrothieno[2,3-d]pyrimidin-6-yl}methyl)imidazolidin-2-ylidene]carbamate] was run?
Its IC50 is 1.5 nM.

`Cc1c(CN2CCNC2=NC#N)sc2c1c(=O)n(C1CC1)c(=O)n2CC1CCCO1` (racemic) [Example 41, [1-{[3-Cyclopropyl-5-methyl-2,4-dioxo-1-(tetrahydrofuran-2-ylmethyl)-1,2,3,4-tetrahydrothieno[2,3-d]pyrimidin-6-yl]methyl}imidazolidin-2-ylidene]cyanamide] was tested. Which IC50 did it give?
The IC50 was 16 nM.

With `Cc1c(CN2CCNC2=O)sc2c1c(=O)n(C1CC1C)c(=O)n2C[C@H]1CCCO1` (single isomer, unassigned) [Example 287] as the molecule, how does the IC50 read?
Its IC50 is 2.8 nM.

For `COCCn1c(=O)n(C2(C)CCC2)c(=O)c2c(C)c(CN3CCNC3=O)sc21` [Example 139, 1-(2-Methoxyethyl)-5-methyl-3-(1-methylcyclobutyl)-6-[(2-oxoimidazolidin-1-yl)methyl]thieno[2,3-d]pyrimidine-2,4(1H,3H)-dione], which IC50 is on record?
Its IC50 is 310 nM.

Which IC50 does the source give for `Cc1c(CN2CCNC2=O)sc2c1c(=O)n(C1CC1C)c(=O)n2C` (racemic) [Example 221, 1,5-Dimethyl-3-(2-methylcyclopropyl)-6-[(2-oxoimidazolidin-1-yl)methyl]thieno[2,3-d]pyrimidine-2,4(1H,3H)-dione] here?
Its IC50 is 3.3 nM.

For `COCCn1c(=O)n(C2(C)CCC2)c(=O)c2c(C)c(Cn3nc[nH]c3=O)sc21` [Example 143, 1-(2-Methoxyethyl)-5-methyl-3-(1-methylcyclobutyl)-6-[(5-oxo-4,5-dihydro-H-1,2,4-triazol-1-yl)methyl]thieno[2,3-d]pyrimidine-2,4(1H,3H)-dione], which IC50 is on record?
The IC50 was 880 nM.

For `COC(=O)N=C1NCCN1Cc1sc2c(c1C)c(=O)n(C1(C)CC1)c(=O)n2CCC(F)(F)F` [Example 58, Methyl [1-{[5-methyl-3-(1-methylcyclopropyl)-2,4-dioxo-1-(3,3,3-trifluoropropyl)-1,2,3,4-tetrahydrothieno[2,3-d]pyrimidin-6-yl]methyl}imidazolidin-2-ylidene]carbamate], which IC50 is on record?
Its IC50 is 10 nM.

How did the IC50 turn out when `Cc1c(CN2CCNC2=O)sc2c1c(=O)n(C1CC1C)c(=O)n2CCC(F)(F)C(F)F` (racemic) [Example 245, 5-Methyl-3-(2-methylcyclopropyl)-6-[(2-oxoimidazolidin-1-yl)methyl]-1-(3,3,4,4-tetrafluorobutyl)thieno[2,3-d]pyrimidine-2,4(1H,3H)-dione] was run?
The IC50 was 6.7 nM.

For `Cc1c(Cn2nc[nH]c2=O)sc2c1c(=O)n(C1CC1)c(=O)n2CC1CCCC1(F)F` (single isomer, unassigned) [Example 208, 3-Cyclopropyl-1-[(2,2-difluorocyclopentyl)methyl]-5-methyl-6-[(5-oxo-4,5-dihydro-1H-1,2,4-triazol-1-yl)methyl]thieno[2,3-d]pyrimidine-2,4(1H,3H)-dione], which IC50 is on record?
The IC50 was 10 nM.

How did the IC50 turn out when `Cc1c(CN2CCNC(=O)C2=O)sc2c1c(=O)n(C1CC3(CCC3)C1)c(=O)n2CCC(F)(F)F` [Example 177, 6-[(2,3-Dioxopiperazin-1-yl)methyl]-5-methyl-3-(spiro[3.3]hept-2-yl)-1-(3,3,3-trifluoropropyl)thieno[2,3-d]pyrimidine-2,4(1H,3H)-dione] was run?
Its IC50 is 17 nM.

With `COCCn1c(=O)n(C2(C)CCC2)c(=O)c2c(C)c(CN3CCNC(=O)C3=O)sc21` [Example 142, 6-[(2,3-Dioxopiperazin-1-yl)methyl]-1-(2-methoxyethyl)-5-methyl-3-(1-methylcyclobutyl)thieno[2,3-d]pyrimidine-2,4(1H,3H)-dione] as the molecule, how does the IC50 read?
Its IC50 is 460 nM.

With `Cc1c(Cn2[nH]ccc2=O)sc2c1c(=O)n(C1CC(F)(F)C1)c(=O)n2CCC(F)(F)F` [Example 313, 3-(3,3-Difluorocyclobutyl)-5-methyl-6-[(5-oxo-2,5-dihydro-1H-pyrazol-1-yl)methyl]-1-(3,3,3-trifluoropropyl)thieno[2,3-d]pyrimidine-2,4(1H,3H)-dione] as the molecule, how does the IC50 read?
The IC50 was 93 nM.

For `Cc1c(Cn2nc[nH]c2=O)sc2c1c(=O)n(C1CC1)c(=O)n2CC1CCC(F)(F)C1` (racemic) [Example 209, 3-Cyclopropyl-1-[(3,3-difluorocyclopentyl)methyl]-5-methyl-6-[(5-oxo-4,5-dihydro-1H-1,2,4-triazol-1-yl)methyl]thieno[2,3-d]pyrimidine-2,4(1H,3H)-dione], which IC50 is on record?
Its IC50 is 200 nM.

With `Cc1c(Cn2nc[nH]c2=O)sc2c1c(=O)n(C1CC1C)c(=O)n2CCOC(F)(F)F` (single isomer, unassigned) [Example 278, 5-Methyl-3-(2-methylcyclopropyl)-6-[(5-oxo-4,5-dihydro-1H-1,2,4-triazol-1-yl)methyl]-1-[2-(trifluoromethoxy)ethyl]thieno[2,3-d]pyrimidine-2,4(1H,3H)-dione] as the molecule, how does the IC50 read?
Its IC50 is 1.6 nM.

Which IC50 does the source give for `Cc1c(Cn2nc[nH]c2=O)sc2c1c(=O)n(C1CC1)c(=O)n2CC1CCC1(F)F` (single isomer, unassigned; enantiomer 1) [Example 202, 3-Cyclopropyl-1-[(2,2-difluorocyclobutyl)methyl]-5-methyl-6-[(5-oxo-4,5-dihydro-1H-1,2,4-triazol-1-yl)methyl]thieno[2,3-d]pyrimidine-2,4(1H,3H)-dione (enantiomer 1)] here?
Its IC50 is 140 nM.

How did the IC50 turn out when `COCCn1c(=O)n(C2CC3(CCC3)C2)c(=O)c2c(C)c(CN3CCNC3=NC(=O)OC)sc21` [Example 181, Methyl [1-{[1-(2-methoxyethyl)-5-methyl-2,4-dioxo-3-(spiro[3.3]hept-2-yl)-1,2,3,4-tetrahydrothieno[2,3-d]pyrimidin-6-yl]methyl}imidazolidin-2-ylidene]carbamate] was run?
Its IC50 is 6.7 nM.

With `Cc1c(CN2CCNC2=O)sc2c1c(=O)n(C1CC1(C)C)c(=O)n2CCCF` (racemic) [Example 97, 3-(2,2-Dimethylcyclopropyl)-1-(3-fluoropropyl)-5-methyl-6-[(2-oxoimidazolidin-1-yl)methyl]thieno[2,3-d]pyrimidine-2,4(1H,3H)-dione] as the molecule, how does the IC50 read?
Its IC50 is 26 nM.

With `Cc1c(Cn2nc[nH]c2=O)sc2c1c(=O)n(C1(C)CC1)c(=O)n2CCC(F)(F)F` [Example 60, 5-Methyl-3-(1-methylcyclopropyl)-6-[(5-oxo-4,5-dihydro-1H-1,2,4-triazol-1-yl)methyl]-1-(3,3,3-trifluoropropyl)thieno[2,3-d]pyrimidine-2,4(1H,3H)-dione] as the molecule, how does the IC50 read?
The IC50 was 15 nM.

`COCCn1c(=O)n(C2CC3(CCC3)C2)c(=O)c2c(C)c(CN3CCNC(=O)C3=O)sc21` [Example 182, 6-[(2,3-Dioxopiperazin-1-yl)methyl]-1-(2-methoxyethyl)-5-methyl-3-(spiro[3.3]hept-2-yl)thieno[2,3-d]pyrimidine-2,4(1H,3H)-dione] was tested. Which IC50 did it give?
Its IC50 is 27 nM.

With `Cc1c(Cn2nc[nH]c2=O)sc2c1c(=O)n(C1CC1)c(=O)n2CCSC(F)(F)F` [Example 213, 3-Cyclopropyl-5-methyl-6-[(5-oxo-4,5-dihydro-1H-1,2,4-triazol-1-yl)methyl]-1-{2-[(trifluoromethyl)sulfanyl]ethyl}thieno[2,3-d]pyrimidine-2,4(1H,3H)-dione] as the molecule, how does the IC50 read?
Its IC50 is 40 nM.

`Cc1c(CN2CCNC2=NC#N)sc2c1c(=O)n(C1(C)CCC1)c(=O)n2CCC(F)(F)F` [Example 135, [1-{[5-Methyl-3-(1-methylcyclobutyl)-2,4-dioxo-1-(3,3,3-trifluoropropyl)-1,2,3,4-tetrahydrothieno[2,3-d]pyrimidin-6-yl]methyl}imidazolidin-2-ylidene]cyanamide] was tested. Which IC50 did it give?
Its IC50 is 48 nM.

For `Cc1c(CN2CCNC2=O)sc2c1c(=O)n(C1CC1C)c(=O)n2CC1CCOC1` (stereo not drawn) [Example 289, 5-Methyl-3-(2-methylcyclopropyl)-6-[(2-oxoimidazolidin-1-yl)methyl]-1-(tetrahydrofuran-3-ylmethyl)thieno[2,3-d]pyrimidine-2,4(1H,3H)-dione], which IC50 is on record?
Its IC50 is 35 nM.

How did the IC50 turn out when `Cc1c(Cn2cc[nH]c2=O)sc2c1c(=O)n(C1CC1)c(=O)n2CC1CCCO1` (racemic) [Example 46, 3-Cyclopropyl-5-methyl-6-[(2-oxo-2,3-dihydro-H-imidazol-1-yl)methyl]-1-(tetrahydrofuran-2-ylmethyl)thieno[2,3-d]pyrimidine-2,4(1H,3H)-dione] was run?
Its IC50 is 39 nM.

From patent US20200016159A1, “N3-CYCLICALLY SUBSTITUTED THIENOURACILS AND USE THEREOF” (Bayer Aktiengesellschaft, priority 2016, published 2020)
